Assay results taken from PubChem BioAssay (NCI).
Where “and” joins values, the source holds several entries; their conditions need not be identical. Equal values may be shown once.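 Test compounds were applied to cells in 96-well plates for 48 hours at 5 doses. The concentration for 50% growth inhibition is given as GI50. TGI is the concentration that stops growth completely.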

Assays:
Assay in all cases: DTP human tumour cell line panel, 48 h
SK-MEL-28 melanoma = test system: SK-MEL-28 melanoma
LOX IMVI melanoma = test system: LOX IMVI melanoma
SN12C renal = test system: SN12C renal
IGROV1 ovarian = test system: IGROV1 ovarian
OVCAR-8 ovarian = test system: OVCAR-8 ovarian
NCI-H522 lung = test system: NCI-H522 lung
PC-3 prostate = test system: PC-3 prostate
786-0 renal = test system: 786-0 renal
CCRF-CEM leukemia = test system: CCRF-CEM leukemia
SW-620 colon = test system: SW-620 colon

SMILES	GI50 (SK-MEL-28 melanoma) [µM]	TGI (SK-MEL-28 melanoma) [µM]	GI50 (LOX IMVI melanoma) [µM]	TGI (LOX IMVI melanoma)	GI50 (SN12C renal) [µM]	TGI (SN12C renal) [µM]	GI50 (IGROV1 ovarian) [µM]	TGI (IGROV1 ovarian)	GI50 (OVCAR-8 ovarian) [µM]	TGI (OVCAR-8 ovarian) [µM]	GI50 (NCI-H522 lung) [µM]	TGI (NCI-H522 lung)	GI50 (PC-3 prostate) [µM]	TGI (PC-3 prostate) [µM]	GI50 (786-0 renal) [µM]	TGI (786-0 renal) [µM]	GI50 (CCRF-CEM leukemia) [µM]	TGI (CCRF-CEM leukemia) [µM]	GI50 (SW-620 colon) [µM]	TGI (SW-620 colon) [µM]
C/C1=C\C/C=C(\C)[C@H]2CC(CC/C(C)=C/CC1)[C@@](C)(CO)O2	> 100	> 100	23.3	54 µM	16.3	> 100	16	56.5 µM	> 100	> 100	23.3	> 100 µM	68.5	> 100	> 100	> 100	72.8	> 100	52.9	> 100
C[C@]12CCC3c4ccc(O)cc4CCC3C1Cc1ccc(O)cc12 (some centres undefined)	8.72	22.7	6.53	21.3 µM	11.8	25.8	9.72	26.1 µM	15.8	33.8	3.5	12.8 µM	7.25	22.4	5.22	18.1	4.14	17.2	3.7	14.9
CCOC(=O)Cn1c(C)c(/C=N/NC(=O)c2cc3c(ccc4ccccc43)o2)c2ccccc21	1.66	30.5	0.537	2.78 µM	0.707	3.85	0.527	3.47 µM	0.486		0.399	6.93 µM	0.332	6	0.491	2.24	0.41	> 100	0.48	11.4
CO[C@H]1C[C@@H]2CC[C@@H](C)[C@@](O)(O2)C(=O)C(=O)N2CCCC[C@H]2C(=O)O[C@H]([C@H](C)C[C@@H]2CC[C@@H](OP(C)(C)=O)[C@H](OC)C2)CC(=O)[C@H](C)/C=C(\C)[C@@H](O)[C@@H](OC)C(=O)[C@H](C)C[C@H](C)/C=C/C=C/C=C/1C	11	23.8	< 0.01	21.7 µM	11	25.8	< 0.01	18.3 µM	< 0.01	28.8		19.9 µM	< 0.0419	18.8	8.92	22.7	8.17	52.4	12.1	27.9
O=C1c2ccccc2-c2n[nH]c3cccc1c23	49.3	> 100	6.04	> 100 µM and 34.2 µM	20.8	> 100	9.32	> 100 µM and 99.1 µM		> 100	15.7	50.4 µM and > 92.8 µM	17.8	> 100	11.9	> 100		> 100		> 100
CC[C@H](C)[C@H](NC(=O)Nc1ccccc1)C(=O)N(C)[C@H](C[C@@H](OC(C)=O)c1nc(C(=O)N[C@@H](Cc2ccccc2)C[C@H](C)C(=O)OC)cs1)C(C)C	> 100	> 100	4.76	> 100 µM	8.31	> 100	3.28	> 100 µM	4.69	> 100	1.5	21.1 µM	3.47	> 100	3.56	> 100	2.25	> 100	3.58	> 100
COc1ccc(-c2cc(-c3cn[nH]c3-c3ccccn3)ccn2)cc1	> 25	> 25	> 25	> 25 µM	> 25	> 25	> 25	> 25 µM	> 25	> 25	> 25	> 25 µM	> 25	> 25	> 25	> 25	> 25	> 25	> 25	> 25
CC1(O)CC2(O)C=CC3=C(C(=O)c4cccc(O)c4C3=O)C2(O)C(=O)C1O (centres undefined)		3.2		3.37 µM		6.66		10.6 µM		8.08		0.29 µM		17.1		3.84		2.87		1.67
CCN(CC)CCCOc1cc(O)c2c(=O)cc(-c3ccccc3)oc2c1	3.42	17	3.75	14.1 µM	10.1	22.8	6.17	22.1 µM		28.2	12.1	26.7 µM	10.8	25.3	11.3	24.1	10.4	26.8	6.27	19.3
O=C(NNc1ccccc1)OCc1ccccc1	98.3	> 100	15.2	> 100 µM	73.8	> 100	15.2	> 100 µM	11.2	> 100	33.6	> 100 µM	5.35	> 100	7.01	> 100	3.94	> 100	2.14	> 100
CCOC(=O)c1ccc(Nc2sc(C(=O)c3cccc([N+](=O)[O-])c3)c(N)c2C#N)cc1	8.32	> 59.9	0.148	15.4 µM	0.497	> 46.7	0.0244	26 µM	1.4	10.4	0.0277	0.852 µM	0.179	> 32.1	0.122	15.3	0.067	8.34	0.0591	6.63
COc1cc2ccnc3c2c(c1OC)-c1ccc(=O)ccc1-3	23.7	66.9	21	46.5 µM	31	> 100	47	> 100 µM	13.4	58.8	23.4	71.3 µM	29.7	> 100	22.4	> 100	13.7	41.7	13.9	> 100
CO/N=C(/COc1c(-c2ccccc2)oc2ccccc2c1=O)c1ccc(OC)cc1	> 100	> 100	> 100	> 100 µM	76.7	> 100	> 100	> 100 µM	> 100	> 100	53.3	> 100 µM	> 100	> 100	> 100	> 100	60	> 100	> 100	> 100
COc1cc(Cn2ccc3c2-c2oncc2CC3)cc(OC)c1	8.75	> 100	4.83	> 100 µM	6.99	> 100	7.44	> 100 µM	4.81	46.7	3.57	40.4 µM	11	> 100	6.36	37.1	3.74	> 100	2.18	> 100
Nc1nc(N)c2c(ccc3nccc32)[nH]1	14.7	> 93.8	0.839	16.6 µM	6.91	> 68.6	2.34	9.35 µM	4.62	> 100	4.88	24.3 µM	1.63	> 64.2	7.01	> 100	1.57	> 100	1.03	> 77.3
